“And” between values parts separate entries of the source, which are not always exact repeats. Equal entries are not always repeated.
Experiments:
Assay in all cases: radiometric filter-binding kinase assay, Kinase HotSpot
Settings in all cases: compound 0.5 µM; ATP 10 µM
[1] = biological target: SRPK2 (human) (UniProt P78362)
[2] = biological target: SGK2 (human) (UniProt Q9HBY8)
[3] = biological target: PRKCA (human) (UniProt P17252)
[4] = biological target: MST4 (human) (UniProt Q9P289)
[5] = biological target: STK17A (human) (UniProt Q9UEE5)
[6] = biological target: CDK9 CCNK (human) (UniProt O75909+P50750)
[7] = biological target: CAMK2G (human) (UniProt Q13555)
[8] = biological target: CSNK2A1 (human) (UniProt P68400)
[9] = biological target: EPHA1 (human) (UniProt P21709)
[10] = biological target: NEK7 (human) (UniProt Q8TDX7)
[11] = biological target: GRK7 (human) (UniProt Q8WTQ7)
[12] = biological target: JAK3 JH1 JH2 (human) (UniProt P52333)
[13] = biological target: ROS1 (human) (UniProt P08922)
Sequence of ROS1 (human) (P08922 whole entry, looked up): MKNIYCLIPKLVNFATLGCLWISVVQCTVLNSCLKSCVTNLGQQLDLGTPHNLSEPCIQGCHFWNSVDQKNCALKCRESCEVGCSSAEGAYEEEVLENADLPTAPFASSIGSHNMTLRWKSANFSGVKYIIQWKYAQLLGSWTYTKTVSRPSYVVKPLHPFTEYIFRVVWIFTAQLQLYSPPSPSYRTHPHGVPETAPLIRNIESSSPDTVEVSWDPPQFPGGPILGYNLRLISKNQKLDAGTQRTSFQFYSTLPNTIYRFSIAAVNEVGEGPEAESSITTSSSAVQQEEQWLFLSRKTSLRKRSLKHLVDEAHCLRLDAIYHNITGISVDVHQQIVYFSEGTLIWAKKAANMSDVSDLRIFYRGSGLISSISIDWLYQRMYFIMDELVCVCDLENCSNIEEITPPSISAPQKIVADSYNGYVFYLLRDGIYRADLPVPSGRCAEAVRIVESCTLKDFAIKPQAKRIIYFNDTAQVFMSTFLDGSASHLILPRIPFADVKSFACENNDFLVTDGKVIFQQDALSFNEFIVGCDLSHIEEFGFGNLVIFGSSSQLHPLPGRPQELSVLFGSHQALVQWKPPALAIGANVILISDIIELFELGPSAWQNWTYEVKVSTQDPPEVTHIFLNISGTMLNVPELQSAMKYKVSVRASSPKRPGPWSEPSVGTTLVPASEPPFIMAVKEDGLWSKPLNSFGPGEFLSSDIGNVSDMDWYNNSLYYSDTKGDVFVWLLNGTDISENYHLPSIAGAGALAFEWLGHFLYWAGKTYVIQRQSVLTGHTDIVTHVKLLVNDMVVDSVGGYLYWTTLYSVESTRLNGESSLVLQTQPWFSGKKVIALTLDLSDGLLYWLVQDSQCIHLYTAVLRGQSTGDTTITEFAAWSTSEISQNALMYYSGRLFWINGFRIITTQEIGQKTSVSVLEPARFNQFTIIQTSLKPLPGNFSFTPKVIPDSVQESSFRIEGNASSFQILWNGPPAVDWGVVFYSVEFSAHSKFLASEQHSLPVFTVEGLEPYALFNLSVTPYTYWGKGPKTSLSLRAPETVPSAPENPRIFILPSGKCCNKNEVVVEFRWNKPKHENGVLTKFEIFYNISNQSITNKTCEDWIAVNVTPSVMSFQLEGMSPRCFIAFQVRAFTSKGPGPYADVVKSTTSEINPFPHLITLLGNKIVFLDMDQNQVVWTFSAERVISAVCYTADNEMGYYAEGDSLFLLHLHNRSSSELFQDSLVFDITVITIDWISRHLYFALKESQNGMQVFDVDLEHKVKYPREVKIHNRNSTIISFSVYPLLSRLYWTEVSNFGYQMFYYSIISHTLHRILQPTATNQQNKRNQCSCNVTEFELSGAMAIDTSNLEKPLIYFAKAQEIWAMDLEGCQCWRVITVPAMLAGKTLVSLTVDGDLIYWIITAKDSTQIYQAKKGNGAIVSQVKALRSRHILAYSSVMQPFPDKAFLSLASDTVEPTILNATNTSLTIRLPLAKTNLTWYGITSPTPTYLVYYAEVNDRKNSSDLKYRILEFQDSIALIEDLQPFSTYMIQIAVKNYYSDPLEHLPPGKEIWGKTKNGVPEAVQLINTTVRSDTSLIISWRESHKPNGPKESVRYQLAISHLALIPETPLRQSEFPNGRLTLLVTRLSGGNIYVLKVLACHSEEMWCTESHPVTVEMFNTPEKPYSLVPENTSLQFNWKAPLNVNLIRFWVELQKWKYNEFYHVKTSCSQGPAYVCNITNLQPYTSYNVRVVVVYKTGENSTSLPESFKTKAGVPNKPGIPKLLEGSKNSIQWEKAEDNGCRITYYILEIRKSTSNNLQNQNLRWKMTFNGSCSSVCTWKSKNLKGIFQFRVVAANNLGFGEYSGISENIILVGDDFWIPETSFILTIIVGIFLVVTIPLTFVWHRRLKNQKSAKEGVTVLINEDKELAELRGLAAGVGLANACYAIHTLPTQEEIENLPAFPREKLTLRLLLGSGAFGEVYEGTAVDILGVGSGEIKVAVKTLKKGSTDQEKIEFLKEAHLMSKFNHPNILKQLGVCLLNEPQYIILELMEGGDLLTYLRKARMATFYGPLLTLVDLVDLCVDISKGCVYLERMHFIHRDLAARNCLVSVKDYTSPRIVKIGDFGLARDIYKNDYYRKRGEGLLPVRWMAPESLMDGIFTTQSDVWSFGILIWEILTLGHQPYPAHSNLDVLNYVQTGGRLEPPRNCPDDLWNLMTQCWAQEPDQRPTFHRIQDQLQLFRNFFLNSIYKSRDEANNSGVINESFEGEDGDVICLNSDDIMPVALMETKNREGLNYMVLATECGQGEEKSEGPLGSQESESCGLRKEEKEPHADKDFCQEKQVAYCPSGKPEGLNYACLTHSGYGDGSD

[14] = biological target: HIPK2 (human) (UniProt Q9H2X6)
[15] = biological target: FLT1 (human) (UniProt P17948)
[16] = biological target: DAPK1 (human) (UniProt P53355)
[17] = biological target: ACVRL1 (human) (UniProt P37023)
[18] = biological target: MYLK (human) (UniProt Q15746)
[19] = biological target: CSF1R (human) (UniProt P07333)
[20] = biological target: DDR2 (human) (UniProt Q16832)
[21] = biological target: RPS6KB2 (human) (UniProt Q9UBS0)
[22] = biological target: MARK2 (human) (UniProt Q7KZI7)
[23] = biological target: JAK2 JH1 JH2 (human) (UniProt O60674)
[24] = biological target: ABL1 (human) (UniProt P00519)
[25] = biological target: CSNK1D (human) (UniProt P48730)
[26] = biological target: CDC42BPB (human) (UniProt Q9Y5S2)
[27] = biological target: PRKG1 (human) (UniProt Q13976)
Sequence of PRKG1 (human) (Q13976 whole entry, looked up): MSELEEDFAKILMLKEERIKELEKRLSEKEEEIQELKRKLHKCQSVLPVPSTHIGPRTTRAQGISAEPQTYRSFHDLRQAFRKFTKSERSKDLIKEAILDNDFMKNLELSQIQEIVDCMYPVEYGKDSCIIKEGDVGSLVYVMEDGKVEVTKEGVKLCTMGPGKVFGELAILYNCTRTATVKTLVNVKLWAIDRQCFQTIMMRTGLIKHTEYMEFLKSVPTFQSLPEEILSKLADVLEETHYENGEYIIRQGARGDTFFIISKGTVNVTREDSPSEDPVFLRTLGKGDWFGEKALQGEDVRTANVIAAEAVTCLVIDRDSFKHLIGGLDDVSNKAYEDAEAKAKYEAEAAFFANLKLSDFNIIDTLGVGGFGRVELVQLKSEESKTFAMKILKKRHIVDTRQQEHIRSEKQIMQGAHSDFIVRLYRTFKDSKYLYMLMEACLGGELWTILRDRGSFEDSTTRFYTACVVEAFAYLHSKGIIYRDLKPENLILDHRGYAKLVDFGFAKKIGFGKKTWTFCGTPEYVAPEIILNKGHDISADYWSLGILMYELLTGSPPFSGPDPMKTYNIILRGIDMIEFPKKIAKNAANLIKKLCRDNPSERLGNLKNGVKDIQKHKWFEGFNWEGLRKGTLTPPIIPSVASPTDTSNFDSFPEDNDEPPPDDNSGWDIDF

[28] = biological target: RAF1 (human) (UniProt P04049)
[29] = biological target: LYN (human) (UniProt P07948)
Sequence of LYN (human) (P07948 whole entry, looked up): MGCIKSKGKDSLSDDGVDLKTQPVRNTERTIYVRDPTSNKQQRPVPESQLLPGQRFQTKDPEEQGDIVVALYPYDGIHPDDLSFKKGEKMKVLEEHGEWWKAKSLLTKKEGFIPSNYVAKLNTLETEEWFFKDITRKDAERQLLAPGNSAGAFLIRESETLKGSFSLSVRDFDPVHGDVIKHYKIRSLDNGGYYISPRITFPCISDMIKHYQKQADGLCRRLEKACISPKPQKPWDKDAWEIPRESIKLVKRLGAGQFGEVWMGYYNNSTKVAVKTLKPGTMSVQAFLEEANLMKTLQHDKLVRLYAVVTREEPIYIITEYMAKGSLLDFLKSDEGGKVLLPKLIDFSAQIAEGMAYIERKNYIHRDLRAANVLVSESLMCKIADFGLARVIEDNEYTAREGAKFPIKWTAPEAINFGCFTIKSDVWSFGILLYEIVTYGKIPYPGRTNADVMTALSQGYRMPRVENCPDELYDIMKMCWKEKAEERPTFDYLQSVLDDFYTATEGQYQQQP

[30] = biological target: TXK (human) (UniProt P42681)
[31] = biological target: PRKD3 (human) (UniProt O94806)
[32] = biological target: STK4 (human) (UniProt Q13043)
[33] = biological target: IRAK4 (human) (UniProt Q9NWZ3)
[34] = biological target: AURKC (human) (UniProt Q9UQB9)
Sequence of AURKC (human) (Q9UQB9 whole entry, looked up): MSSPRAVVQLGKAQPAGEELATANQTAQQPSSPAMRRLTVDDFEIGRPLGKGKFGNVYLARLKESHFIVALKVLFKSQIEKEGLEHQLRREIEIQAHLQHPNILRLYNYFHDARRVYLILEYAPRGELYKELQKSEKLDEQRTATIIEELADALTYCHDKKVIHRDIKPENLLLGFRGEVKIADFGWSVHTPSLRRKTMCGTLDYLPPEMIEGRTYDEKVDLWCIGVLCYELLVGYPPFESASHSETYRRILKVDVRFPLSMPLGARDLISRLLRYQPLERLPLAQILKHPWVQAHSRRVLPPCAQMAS

[35] = biological target: PLK1 (human) (UniProt P53350)
[36] = biological target: PHKG2 (human) (UniProt P15735)
[37] = biological target: RIPK2 (human) (UniProt O43353)
[38] = biological target: TAOK1 (human) (UniProt Q7L7X3)
[39] = biological target: STK10 (human) (UniProt O94804)
[40] = biological target: DYRK2 (human) (UniProt Q92630)
Sequence of DYRK2 (human) (Q92630 whole entry, looked up): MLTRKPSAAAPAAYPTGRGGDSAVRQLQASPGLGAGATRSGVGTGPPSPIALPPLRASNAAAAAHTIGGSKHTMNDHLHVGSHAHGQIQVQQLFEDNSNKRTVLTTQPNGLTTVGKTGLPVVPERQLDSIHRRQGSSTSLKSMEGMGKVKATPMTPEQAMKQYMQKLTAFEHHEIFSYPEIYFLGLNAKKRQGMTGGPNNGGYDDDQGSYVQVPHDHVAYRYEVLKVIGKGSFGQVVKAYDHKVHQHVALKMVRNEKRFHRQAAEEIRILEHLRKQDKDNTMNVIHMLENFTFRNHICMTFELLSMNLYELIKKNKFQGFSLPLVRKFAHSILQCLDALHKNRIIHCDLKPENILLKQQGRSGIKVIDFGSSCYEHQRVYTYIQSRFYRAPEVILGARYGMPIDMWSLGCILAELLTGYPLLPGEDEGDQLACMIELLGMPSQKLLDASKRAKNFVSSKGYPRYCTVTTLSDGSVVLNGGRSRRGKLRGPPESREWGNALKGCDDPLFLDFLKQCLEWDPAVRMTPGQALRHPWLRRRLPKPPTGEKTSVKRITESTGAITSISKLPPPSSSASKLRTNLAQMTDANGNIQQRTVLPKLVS

[41] = biological target: TBK1 (human) (UniProt Q9UHD2)
[42] = biological target: DYRK1B (human) (UniProt Q9Y463)

Sequence of MST4 (human) (Q9P289 whole entry, looked up): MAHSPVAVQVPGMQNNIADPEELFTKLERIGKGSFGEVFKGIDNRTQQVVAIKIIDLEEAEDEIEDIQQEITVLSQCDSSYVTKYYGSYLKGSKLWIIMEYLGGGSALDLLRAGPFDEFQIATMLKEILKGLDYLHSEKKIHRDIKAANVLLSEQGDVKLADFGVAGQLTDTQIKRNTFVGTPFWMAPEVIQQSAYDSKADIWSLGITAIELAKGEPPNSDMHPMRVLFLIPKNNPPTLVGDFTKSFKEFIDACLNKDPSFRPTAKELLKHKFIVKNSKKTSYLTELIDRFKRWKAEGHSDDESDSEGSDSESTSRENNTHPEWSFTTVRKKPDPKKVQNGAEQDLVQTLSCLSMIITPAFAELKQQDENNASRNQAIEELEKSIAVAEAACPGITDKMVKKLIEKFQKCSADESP

Work on O=C1Cc2c([nH]c3ccc(Br)cc23)-c2ccccc2N1 yielded a residual activity [1] of 98.9%, a residual activity [2] of 98.9% and a residual activity [3] of 98.6%. It also gave a residual activity [4] of 108%, a residual activity [5] of 102% and a residual activity [6] of 31.5%. It also gave a residual activity [7] of 116%, a residual activity [8] of 79.1% and a residual activity [9] of 100%. For the same compound, the residual activity [10] was 94.3%, the residual activity [11] was 100% and the residual activity [12] was 103%. It also gave a residual activity [13] of 83.6%, a residual activity [14] of 107% and a residual activity [15] of 78.9%. For the same compound, the residual activity [16] was 101%, the residual activity [17] was 99% and the residual activity [18] was 96.3%. It also gave a residual activity [19] of 92.6%, a residual activity [20] of 98.4% and a residual activity [21] of 99.4%. For the same compound, the residual activity [22] was 74.3%, the residual activity [23] was 102% and the residual activity [24] was 82.6%. The residual activity [25] was 104%, the residual activity [26] was 95.9% and the residual activity [27] was 93% and 95.9%. The residual activity [28] was 91.5%, the residual activity [29] was 67.2% and 75.4% and the residual activity [30] was 82.6%. The residual activity [31] was 95.5%, the residual activity [32] was 81.8% and the residual activity [33] was 88.3%. It also gave a residual activity [34] of 90.9%, a residual activity [35] of 94.9% and a residual activity [36] of 98.9%. For the same compound, the residual activity [37] was 75.9%, the residual activity [38] was 99.4% and the residual activity [39] was 89.8%. It also gave a residual activity [40] of 107% and a residual activity [41] of 93%.

COc1ccc(CNC(=O)Nc2ncc([N+](=O)[O-])s2)cc1 was tested, and the residual activity [1] was 99.6%, the residual activity [2] was 99.5% and the residual activity [3] was 61.9%. It also gave a residual activity [4] of 113%, a residual activity [5] of 91.6% and a residual activity [6] of 82.8%. For the same compound, the residual activity [42] was 99.4%, the residual activity [7] was 102% and the residual activity [8] was 94.2%. For the same compound, the residual activity [9] was 107%, the residual activity [10] was 99.4% and the residual activity [11] was 103%. It also gave a residual activity [12] of 105%, a residual activity [13] of 100% and a residual activity [14] of 103%. The residual activity [15] was 96.8%, the residual activity [16] was 105% and the residual activity [17] was 106%. The residual activity [18] was 94.1%, the residual activity [19] was 99.2% and the residual activity [20] was 100%. For the same compound, the residual activity [21] was 93.6%, the residual activity [22] was 106% and the residual activity [23] was 104%. For the same compound, the residual activity [24] was 96.8%, the residual activity [26] was 93.5% and the residual activity [27] was 95.9% and 97.3%. The residual activity [28] was 94%, the residual activity [29] was 91.4% and 97.7% and the residual activity [30] was 96.9%. It also gave a residual activity [31] of 93.4%, a residual activity [32] of 99.8% and a residual activity [33] of 101%. For the same compound, the residual activity [34] was 98.4%, the residual activity [35] was 102% and the residual activity [36] was 105%. It also gave a residual activity [37] of 82.8%, a residual activity [38] of 101% and a residual activity [39] of 94.3%. The residual activity [40] was 103% and the residual activity [41] was 104%.
